One assay relates to endogenous receptors. The conditions noted are these: confocal Ca2+ imaging; cited from earlier work.
Assay [1] has as its target T1, Sm.TRPMPZQ (Schistosoma mansoni, UniProt A0A5K4F0X5). As to the kind of experiment: cell-based. The following applies: S3 Table, titration. As for the experimental part: HEK cells were transfected with cDNA (400μg/ml DNA) encoding Sm.TRPMPZQ using a Maxcyte STX electroporation system and incubated overnight at 37°C. This system is uniquely capabable of large scale transfections providing one batch of cells ready for large scale HTS [30]. Briefly, the HEK cells were resuspended at 10^8/ml in Maxcyte electroporation buffer. Plasmid DNA was added to the cells in buffer to achieve a concentration of 400 μg/ml from a stock of 5mg/ml (in TE buffer). This mixture was loaded into the appropriate cassette, inserted into the machine, and cells electroporated. Cells were then frozen to provide a single supply of transfected cells for all subsequent assays. On the day of the assays, cells were thawed in a 37°C waterbath, and resuspended in DMEM + 10% FBS and counted. The cells were pelleted by centrifugation at 170xg for 5 minutes. The media was aspirated, and the remaining pellet was resuspended in 1x HBSS with 20 mM HEPES and 1% DMSO to achieve 1.33x10^6cells/ml. […] A read of basal fluorescence values was made (5s) prior to addition of compounds or controls (30 nl). In both ‘agonist’ and ‘antagonist mode’, the total assay volume was 6μl (1% DMSO). […] Ligand performance was categorized using an algorithm based on the activity of the entire dataset to define a ‘hit-cutoff’ parameter for both agonist-mode and antagonist-mode screening. […] Titration assays were executed using the same reagents, protocols and detection systems, done as 10-point concentration-response curves, performed in triplicate. Counter-screening was performed using untransfected HEK293 cells for comparison with results testing the same compounds effect on cells expressing Sm.TRPMPZQ, with ATP used as the positive control. For each compound, activity was plotted against compound concentration and data were fitted with a sigmoidal function.

Assay [2] relates to untransfected HEK293 cells. As to the kind of experiment: Counterscreen, antagonist mode, Ca2+ signal in untransfected HEK cells. Format: cell-based. The following applies: S3 Table, counterscreen titration. How it is done: (§1) HEK cells were transfected with cDNA (400μg/ml DNA) encoding Sm.TRPMPZQ using a Maxcyte STX electroporation system and incubated overnight at 37°C. This system is uniquely capabable of large scale transfections providing one batch of cells ready for large scale HTS [30]. Briefly, the HEK cells were resuspended at 10^8/ml in Maxcyte electroporation buffer. Plasmid DNA was added to the cells in buffer to achieve a concentration of 400 μg/ml from a stock of 5mg/ml (in TE buffer). This mixture was loaded into the appropriate cassette, inserted into the machine, and cells electroporated. Cells were then frozen to provide a single supply of transfected cells for all subsequent assays. On the day of the assays, cells were thawed in a 37°C waterbath, and resuspended in DMEM + 10% FBS and counted. The cells were pelleted by centrifugation at 170xg for 5 minutes. The media was aspirated, and the remaining pellet was resuspended in 1x HBSS with 20 mM HEPES and 1% DMSO to achieve 1.33x10^6cells/ml. This cell suspension was then dispensed at 3 μl/well to the 1536 well plates (Greiner Bio One part 789072) at a density of 4,000 cells/well. Measurements of fluorescence intensity (λex = 470 nm, λem = 535 nm) were made using a FLIPR (Molecular Devices FLIPR Tetra). A read of basal fluorescence values was made (5s) prior to addition of compounds or controls (30 nl). In both ‘agonist’ and ‘antagonist mode’, the total assay volume was 6μl (1% DMSO). […] Ligand performance was categorized using an algorithm based on the activity of the entire dataset to define a ‘hit-cutoff’ parameter for both agonist-mode and antagonist-mode screening. Any compound with greater percent activation than this cutoff was assigned as ‘active’ prior to titration and counter-screening. Titration assays were executed using the same reagents, protocols and detection systems, done as 10-point concentration-response curves, performed in triplicate. Counter-screening was performed using untransfected HEK293 cells for comparison with results testing the same compounds effect on cells expressing Sm.TRPMPZQ, with ATP used as the positive control. For each compound, activity was plotted against compound concentration and data were fitted with a sigmoidal function. In order to be considered a hit at this stage a compound must achieve a EC50<5 μM for agonists and IC50 <5 μM for antagonists. All compounds selected for titration were subjected to LC-MS analysis to confirm mass and sample purity. ChemAxon (https://www.chemaxon.com) academic licensing was provided for the use of Instant JChem (ver. 15.10.12.0) to perform compound mining of the libraries utilized in this effort.
For orientation: The purpose of a counterscreen is to sort out artefacts and off-target activity.

For assay [3], the target named is T1, Sm.TRPMPZQ. As to the kind of experiment: cell-based. The following applies: S3 Table, titration. As for the experimental part:
as §1, with “Any compound with greater percent activation than this cutoff was assigned as ‘active’ prior to titration and counter-screening.” left out, “In order to be considered a hit at this stage a compound must achieve a EC50<5 μM for agonists and IC50 <5 μM for antagonists. All compounds selected for titration were subjected to LC-MS analysis to confirm mass and sample purity.” left out
This is another data set of the same source.

For assay [4], the system named is untransfected HEK293 cells. The experiment in a line: Counterscreen, agonist mode, Ca2+ signal in untransfected HEK cells. In kind it is cell-based. The following applies: S3 Table, counterscreen titration; for EC50: unit inferred, read-out: HEK AG Final EC50. How it is done: as §1
The target in assay [5] is T1, Sm.TRPMPZQ. The conditions noted are these: human TRPM8 agonists; cited from earlier work.

T1 sequence (A0A5K4F0X5 entry or part of it): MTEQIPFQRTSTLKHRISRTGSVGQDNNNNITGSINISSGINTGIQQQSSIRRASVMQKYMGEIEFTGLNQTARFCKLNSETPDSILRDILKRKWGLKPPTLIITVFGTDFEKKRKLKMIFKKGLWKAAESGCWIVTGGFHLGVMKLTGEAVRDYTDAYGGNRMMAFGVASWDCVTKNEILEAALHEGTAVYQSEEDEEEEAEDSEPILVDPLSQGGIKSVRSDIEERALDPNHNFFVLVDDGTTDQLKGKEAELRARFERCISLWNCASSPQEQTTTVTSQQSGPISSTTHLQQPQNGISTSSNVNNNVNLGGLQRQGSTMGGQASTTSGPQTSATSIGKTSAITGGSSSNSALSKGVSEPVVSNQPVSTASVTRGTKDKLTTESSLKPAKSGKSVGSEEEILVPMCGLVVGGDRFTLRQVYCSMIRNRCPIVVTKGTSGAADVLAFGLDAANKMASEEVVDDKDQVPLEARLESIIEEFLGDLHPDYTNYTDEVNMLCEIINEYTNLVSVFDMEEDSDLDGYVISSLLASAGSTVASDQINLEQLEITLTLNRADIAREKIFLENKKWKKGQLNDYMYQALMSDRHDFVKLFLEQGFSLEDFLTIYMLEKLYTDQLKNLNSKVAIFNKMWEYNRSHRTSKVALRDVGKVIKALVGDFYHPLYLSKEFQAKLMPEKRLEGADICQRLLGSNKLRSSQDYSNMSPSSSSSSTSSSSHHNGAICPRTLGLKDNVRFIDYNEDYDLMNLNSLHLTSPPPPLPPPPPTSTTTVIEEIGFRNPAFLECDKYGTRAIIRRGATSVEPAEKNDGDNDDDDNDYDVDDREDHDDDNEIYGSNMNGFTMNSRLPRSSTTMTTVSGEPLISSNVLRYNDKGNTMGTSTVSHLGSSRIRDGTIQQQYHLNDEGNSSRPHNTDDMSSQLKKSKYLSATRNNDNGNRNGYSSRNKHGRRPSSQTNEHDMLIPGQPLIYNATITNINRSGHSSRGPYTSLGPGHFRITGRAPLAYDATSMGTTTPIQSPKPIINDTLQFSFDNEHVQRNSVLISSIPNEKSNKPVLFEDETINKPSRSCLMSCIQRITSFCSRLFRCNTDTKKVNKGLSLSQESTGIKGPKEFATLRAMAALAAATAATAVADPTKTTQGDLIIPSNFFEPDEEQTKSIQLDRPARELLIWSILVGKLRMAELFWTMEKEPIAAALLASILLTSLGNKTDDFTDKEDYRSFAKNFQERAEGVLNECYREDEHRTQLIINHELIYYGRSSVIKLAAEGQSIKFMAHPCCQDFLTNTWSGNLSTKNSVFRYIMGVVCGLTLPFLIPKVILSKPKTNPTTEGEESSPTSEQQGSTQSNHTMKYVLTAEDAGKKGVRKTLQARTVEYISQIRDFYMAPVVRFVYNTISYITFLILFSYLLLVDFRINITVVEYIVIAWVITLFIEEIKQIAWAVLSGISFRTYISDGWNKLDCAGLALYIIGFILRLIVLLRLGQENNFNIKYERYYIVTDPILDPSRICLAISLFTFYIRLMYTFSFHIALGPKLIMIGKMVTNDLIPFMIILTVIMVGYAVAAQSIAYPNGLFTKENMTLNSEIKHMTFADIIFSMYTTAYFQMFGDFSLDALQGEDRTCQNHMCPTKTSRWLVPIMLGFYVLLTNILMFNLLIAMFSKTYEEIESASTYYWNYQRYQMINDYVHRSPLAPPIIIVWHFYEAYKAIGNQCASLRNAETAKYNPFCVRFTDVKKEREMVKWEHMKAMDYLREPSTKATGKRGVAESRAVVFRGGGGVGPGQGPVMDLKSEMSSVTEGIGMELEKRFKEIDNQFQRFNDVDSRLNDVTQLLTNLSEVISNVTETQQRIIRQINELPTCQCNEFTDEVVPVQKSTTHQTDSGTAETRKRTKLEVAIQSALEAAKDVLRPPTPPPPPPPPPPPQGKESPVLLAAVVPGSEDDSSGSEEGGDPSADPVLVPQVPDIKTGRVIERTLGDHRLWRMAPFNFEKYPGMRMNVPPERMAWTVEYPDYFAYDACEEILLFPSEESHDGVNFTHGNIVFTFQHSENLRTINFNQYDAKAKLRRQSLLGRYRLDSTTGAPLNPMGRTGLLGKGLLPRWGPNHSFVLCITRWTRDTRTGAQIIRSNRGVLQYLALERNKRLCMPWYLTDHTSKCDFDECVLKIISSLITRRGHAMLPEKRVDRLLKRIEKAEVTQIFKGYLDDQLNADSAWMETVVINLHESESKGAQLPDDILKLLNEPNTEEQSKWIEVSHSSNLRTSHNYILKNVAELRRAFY

Consider `Nc1ncnc2c1ncn2[C@@H]1O[C@H](COP(=O)(O)OP(=O)(O)OP(=O)(O)O)[C@@H](O)[C@H]1O` [ATP], for which the “ΔF/F, amplitude of Ca2+ transient” value with endogenous receptors is on record as 4.5±1.5.

Usually EC50 stands for the concentration giving half of the maximal effect. On to `Cc1cc(C)n(-c2ccc(-n3cccc3/C=C(/C#N)S(=O)(=O)c3ccccc3)cc2)n1` [SR-02000000290-3], for which the “Sm.TRPMPZQ ANT Averaged Max % Response” value on Sm.TRPMPZQ [1] stood at 71.9269%. For the same molecule, the “HEK ANT Averaged Max % Response” value in assay [2] is 37.5091%. In addition, on Sm.TRPMPZQ [3], the “Sm.TRPMPZQ AG Averaged Max % Response” value came out at 6.499%. For the same molecule, in assay [4], the “HEK AG Averaged Max % Response” value was 13.2678% and the EC50 was > 12.4 µM.

Take `FC(F)(F)c1ccc2c(c1)nc(SCc1ccccc1)n2CCc1ccccc1` [SR-07000003001-2]: on Sm.TRPMPZQ [1], the “Sm.TRPMPZQ ANT Averaged Max % Response” value turned out to be 61.2456%. Further, in assay [2], the “HEK ANT Averaged Max % Response” value is recorded as 21.2984%. For the same molecule, the “Sm.TRPMPZQ AG Averaged Max % Response” value on Sm.TRPMPZQ [3] stood at 3.104%. Further, in assay [4], the “HEK AG Averaged Max % Response” value is 8.753% and the EC50 was > 12.4 µM.

For `O=C1NC(c2cccc([N+](=O)[O-])c2)=CCN1c1ccccc1O` [icilin], the “activation of Sm.TRPMPZQ” value at Sm.TRPMPZQ [5] is reported as “not activated”.

In the case of `CC1CCC(C(C)C)C(O)C1` (stereo not shown) [menthol], the “activation of Sm.TRPMPZQ” value on Sm.TRPMPZQ [5] is on record as “not activated”.

These data come from publication PMC8565742 (PLoS Neglected Tropical Diseases, 2021).
